Reference: ChEMBL document CHEMBL1201862, “PubChem BioAssay data set” (2004)
Activity calls are given as the source filed them.

Columns and labels:
[1] = biological target: T1, Short transient receptor potential channel 4 (Mus musculus, UniProt Q9QUQ5); assay: mouse TRPC4 channel inhibitors, dose response, cell-based, HEK293 TRPC4/mu-opioid, Fluo-4 calcium (AID 434942); type: functional;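 note: potency of inhibitors blocking the TRPC4 calcium response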
T1 sequence (Q9QUQ5 whole entry): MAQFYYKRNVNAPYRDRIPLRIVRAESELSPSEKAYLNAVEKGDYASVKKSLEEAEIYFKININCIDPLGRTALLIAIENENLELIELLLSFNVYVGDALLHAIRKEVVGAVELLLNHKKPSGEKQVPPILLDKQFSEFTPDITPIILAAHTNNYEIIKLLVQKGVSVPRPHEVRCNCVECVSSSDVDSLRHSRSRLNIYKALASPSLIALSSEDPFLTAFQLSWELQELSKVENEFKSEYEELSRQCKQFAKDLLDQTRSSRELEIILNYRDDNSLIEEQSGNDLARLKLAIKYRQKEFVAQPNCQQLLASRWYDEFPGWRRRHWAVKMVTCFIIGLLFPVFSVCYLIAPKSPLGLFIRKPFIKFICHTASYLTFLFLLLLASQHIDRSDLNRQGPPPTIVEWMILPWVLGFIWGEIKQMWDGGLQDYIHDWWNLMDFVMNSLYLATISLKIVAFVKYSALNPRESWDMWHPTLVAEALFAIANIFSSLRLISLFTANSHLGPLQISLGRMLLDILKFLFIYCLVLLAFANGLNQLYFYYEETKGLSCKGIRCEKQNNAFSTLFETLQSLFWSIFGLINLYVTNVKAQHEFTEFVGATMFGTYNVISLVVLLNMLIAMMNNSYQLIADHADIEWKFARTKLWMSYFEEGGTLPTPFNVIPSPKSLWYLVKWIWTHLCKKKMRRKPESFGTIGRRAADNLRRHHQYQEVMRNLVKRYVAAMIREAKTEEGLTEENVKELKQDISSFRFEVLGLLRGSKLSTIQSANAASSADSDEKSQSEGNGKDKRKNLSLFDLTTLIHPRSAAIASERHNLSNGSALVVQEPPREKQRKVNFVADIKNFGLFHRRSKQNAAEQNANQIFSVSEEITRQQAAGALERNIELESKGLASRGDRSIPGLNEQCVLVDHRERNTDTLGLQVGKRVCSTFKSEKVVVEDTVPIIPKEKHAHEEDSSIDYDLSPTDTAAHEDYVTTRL

[2] = A cytotoxicity screen of small molecule inhibitors of the PhoP region in Salmonella typhi identified in the primary screen. [Related pubchem assays: 1850, 1864, 1985 ]; type: functional
[3] = microbe, parasite or virus in culture; type: functional; conditions: Mycobacterium tuberculosis
Leucine aminopeptidase = biological target: T2, Leucine aminopeptidase (Plasmodium falciparum 3D7, UniProt Q8IL11); assay: P. falciparum M17LAP inhibitors, primary screen, biochemical, fluorogenic H-Leu-NHMec substrate, 1536-well (AID 1619); type: functional
T2 sequence (Q8IL11 whole entry): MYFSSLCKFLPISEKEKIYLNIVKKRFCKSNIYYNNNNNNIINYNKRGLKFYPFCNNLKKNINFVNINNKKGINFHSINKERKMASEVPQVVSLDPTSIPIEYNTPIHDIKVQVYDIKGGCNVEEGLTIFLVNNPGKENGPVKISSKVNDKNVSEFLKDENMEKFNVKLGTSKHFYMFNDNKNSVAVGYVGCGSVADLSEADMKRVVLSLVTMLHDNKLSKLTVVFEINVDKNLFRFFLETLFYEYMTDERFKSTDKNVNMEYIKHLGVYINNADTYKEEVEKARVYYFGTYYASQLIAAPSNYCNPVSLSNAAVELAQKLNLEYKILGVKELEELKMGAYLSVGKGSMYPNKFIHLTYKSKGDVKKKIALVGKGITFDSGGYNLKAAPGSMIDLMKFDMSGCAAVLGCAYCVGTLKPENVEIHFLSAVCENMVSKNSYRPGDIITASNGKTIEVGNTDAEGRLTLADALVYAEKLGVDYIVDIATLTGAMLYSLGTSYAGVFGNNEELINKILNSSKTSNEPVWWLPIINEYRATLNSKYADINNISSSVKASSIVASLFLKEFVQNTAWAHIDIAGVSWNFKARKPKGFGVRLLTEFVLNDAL

[4] = HEp-2 cell cytotoxicity, dose response, cytotoxicity control for RSV inhibitor project, HTS (AID 2410); type: functional; conditions: human respiratory syncytial virus
[5] = biological target: T3, Sentrin-specific protease 6 (Homo sapiens, UniProt Q9GZR1); type: functional;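 note: Luminescence-based dose-response confirmatory assay of SENP6 inhibition, following up an ultra-high-throughput screen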
T3 sequence (Q9GZR1 whole entry): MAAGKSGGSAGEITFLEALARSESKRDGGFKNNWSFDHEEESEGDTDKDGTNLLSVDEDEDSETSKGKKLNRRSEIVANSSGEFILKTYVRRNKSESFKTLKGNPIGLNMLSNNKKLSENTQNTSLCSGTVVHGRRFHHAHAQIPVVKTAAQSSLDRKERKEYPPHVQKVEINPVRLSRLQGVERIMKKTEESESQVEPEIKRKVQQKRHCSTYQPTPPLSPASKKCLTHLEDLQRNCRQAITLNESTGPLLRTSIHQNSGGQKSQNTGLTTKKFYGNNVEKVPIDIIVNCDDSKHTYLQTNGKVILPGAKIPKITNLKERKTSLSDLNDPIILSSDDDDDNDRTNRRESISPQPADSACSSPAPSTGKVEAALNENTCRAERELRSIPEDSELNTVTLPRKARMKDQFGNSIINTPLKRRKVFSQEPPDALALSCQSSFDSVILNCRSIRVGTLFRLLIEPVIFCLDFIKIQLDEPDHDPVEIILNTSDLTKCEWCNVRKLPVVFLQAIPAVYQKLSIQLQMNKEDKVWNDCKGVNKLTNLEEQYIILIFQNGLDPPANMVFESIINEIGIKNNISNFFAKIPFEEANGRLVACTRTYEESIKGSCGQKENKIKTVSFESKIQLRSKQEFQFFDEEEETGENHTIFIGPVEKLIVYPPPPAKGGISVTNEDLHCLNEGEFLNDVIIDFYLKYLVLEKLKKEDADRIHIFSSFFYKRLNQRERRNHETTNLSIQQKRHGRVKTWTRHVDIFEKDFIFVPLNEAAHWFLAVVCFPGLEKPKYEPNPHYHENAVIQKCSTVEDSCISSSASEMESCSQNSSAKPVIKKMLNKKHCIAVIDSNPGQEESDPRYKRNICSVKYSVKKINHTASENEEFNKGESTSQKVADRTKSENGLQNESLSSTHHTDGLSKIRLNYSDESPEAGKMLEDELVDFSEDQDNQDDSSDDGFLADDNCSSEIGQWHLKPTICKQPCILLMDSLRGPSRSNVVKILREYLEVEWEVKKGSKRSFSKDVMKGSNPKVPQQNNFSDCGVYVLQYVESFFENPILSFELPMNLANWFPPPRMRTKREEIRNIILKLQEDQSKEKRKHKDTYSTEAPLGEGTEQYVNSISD

Caspase-3 = biological target: T4, Caspase-3 (Homo sapiens, UniProt P42574); type: functional;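 note: Dose-response selectivity test against caspase-3 for candidate inhibitors of sentrin-specific proteases (SENPs)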
T4 sequence (P42574 whole entry): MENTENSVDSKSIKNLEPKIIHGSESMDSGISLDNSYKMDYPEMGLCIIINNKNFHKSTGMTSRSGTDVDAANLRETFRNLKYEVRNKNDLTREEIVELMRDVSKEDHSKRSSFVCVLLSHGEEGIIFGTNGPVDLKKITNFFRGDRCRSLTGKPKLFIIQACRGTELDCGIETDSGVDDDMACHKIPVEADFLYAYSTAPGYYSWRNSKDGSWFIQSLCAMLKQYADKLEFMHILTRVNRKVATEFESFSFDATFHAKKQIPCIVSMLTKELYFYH

[6] = biological target: T5, Sentrin-specific protease 8 (Homo sapiens, UniProt Q96LD8); type: functional;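 note: luminescence read-out of SENP8 inhibition, dose-response confirmation following an ultra-high-throughput screen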
T5 sequence (Q96LD8 whole entry): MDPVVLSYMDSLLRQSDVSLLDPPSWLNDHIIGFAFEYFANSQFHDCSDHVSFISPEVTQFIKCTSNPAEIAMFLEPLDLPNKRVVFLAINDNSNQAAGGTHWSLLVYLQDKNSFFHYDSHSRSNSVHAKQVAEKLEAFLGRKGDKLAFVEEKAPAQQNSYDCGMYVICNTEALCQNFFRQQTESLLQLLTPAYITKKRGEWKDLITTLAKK

[7] = biological target: T6, Sentrin-specific protease 7 (Homo sapiens, UniProt Q9BQF6); type: functional;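 note: Luminescence-based dose-response confirmation of ultra-high-throughput screening hits, measuring inhibition of SENP7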
T6 sequence (Q9BQF6 whole entry): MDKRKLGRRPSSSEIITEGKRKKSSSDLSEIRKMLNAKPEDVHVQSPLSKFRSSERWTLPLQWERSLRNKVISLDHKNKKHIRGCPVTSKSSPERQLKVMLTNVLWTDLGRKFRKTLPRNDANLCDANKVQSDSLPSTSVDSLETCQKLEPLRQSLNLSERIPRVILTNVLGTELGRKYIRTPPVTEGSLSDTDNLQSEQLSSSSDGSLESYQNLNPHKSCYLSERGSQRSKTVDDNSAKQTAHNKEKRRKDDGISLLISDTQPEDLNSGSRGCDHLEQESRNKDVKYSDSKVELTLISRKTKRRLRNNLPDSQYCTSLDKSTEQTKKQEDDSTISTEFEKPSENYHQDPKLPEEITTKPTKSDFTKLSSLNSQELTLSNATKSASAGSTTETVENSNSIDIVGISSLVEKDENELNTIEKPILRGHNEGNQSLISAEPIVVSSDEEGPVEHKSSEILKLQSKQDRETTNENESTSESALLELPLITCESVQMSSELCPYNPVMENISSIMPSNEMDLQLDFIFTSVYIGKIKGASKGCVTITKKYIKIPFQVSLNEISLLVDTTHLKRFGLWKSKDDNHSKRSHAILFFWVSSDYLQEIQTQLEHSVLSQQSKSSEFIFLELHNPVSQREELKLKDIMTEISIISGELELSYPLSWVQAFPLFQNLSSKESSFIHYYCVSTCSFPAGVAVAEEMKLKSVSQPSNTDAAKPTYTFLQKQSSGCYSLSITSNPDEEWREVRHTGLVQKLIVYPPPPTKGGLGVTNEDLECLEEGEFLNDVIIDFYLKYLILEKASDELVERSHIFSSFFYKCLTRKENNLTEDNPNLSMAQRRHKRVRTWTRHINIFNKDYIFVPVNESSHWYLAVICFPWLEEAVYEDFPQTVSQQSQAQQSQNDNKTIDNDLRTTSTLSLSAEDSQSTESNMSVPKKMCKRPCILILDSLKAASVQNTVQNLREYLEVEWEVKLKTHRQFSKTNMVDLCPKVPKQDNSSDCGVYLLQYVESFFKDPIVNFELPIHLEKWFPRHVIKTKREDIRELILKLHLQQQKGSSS

Nonstructural protein 1 = Nonstructural protein 1 (Influenza A virus, UniProt Q194T2); type: functional, Influenza A virus (A/California/07/2009(H1N1))
Sequence of Nonstructural protein 1 (Q194T2 whole entry): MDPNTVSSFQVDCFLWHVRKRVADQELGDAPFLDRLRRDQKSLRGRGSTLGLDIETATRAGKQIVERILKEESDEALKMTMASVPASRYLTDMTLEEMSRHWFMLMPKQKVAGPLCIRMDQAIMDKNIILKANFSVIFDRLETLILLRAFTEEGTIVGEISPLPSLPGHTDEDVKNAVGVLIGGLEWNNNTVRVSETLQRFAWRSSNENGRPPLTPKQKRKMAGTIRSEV

O=C(c1ccc(Cl)c(Cl)c1)N(Cc1ccco1)c1ccc(O)cc1
EC50 [1]: 8.41 µM (active)

COc1ccc(Cn2nnnc2C(c2cc3ccc(OC)cc3nc2O)N2CCC(C)CC2)cc1 (stereo not given)
EC50 [2]: > 50 µM (active)

Cc1ccc(-c2nc3c(c(=O)c4ccccc4n3C)c(=O)n2Cc2ccco2)cc1
IC50 (cells): 5.74 µM (active)
CC50 [3]: 38.3 µM (active)

O=C(O)Cn1cc(/C=C2/NC(=O)N(c3ccc(Cl)cc3)C2=O)c2ccccc21
IC50 (Leucine aminopeptidase): 11.9 µM (active)

O=S(=O)(Nc1cccc2nsnc12)c1ccccc1
IC50 (Leucine aminopeptidase): 15.5 µM (active)

OCC1(CCc2ccccc2)CCN(Cc2cc(Cl)ccc2O)CC1
EC50 [1]: 9.44 µM (active)

Fc1ccc(CN2CCC(Cc3ccccc3)CC2)cc1F
EC50 [1]: 4.73 µM (active)

CC(C)(C)c1cc(NC(=O)c2cc(F)c(F)c(F)c2F)no1
IC50 (cells): 41.2 µM (active)

O=C(CSc1nc[nH]n1)Nc1ncc(C(F)(F)F)cc1Cl
IC50 (Leucine aminopeptidase): 19.6 µM (active)

Cc1cc(C)nc(N=C(N)NC2CCCCC2)n1
EC50 [1]: 4.22 µM (active)

Cc1ccccc1-n1c(C)nnc1SCc1cc(=O)oc2ccc3ccccc3c12
CC50 [4]: > 50 µM (active)
IC50 (cells): > 50 µM (active)

COC(=O)c1cc(NC(=O)C2CC=CCC2C(=O)O)cc(C(=O)OC)c1 (stereo not given)
IC50 (Leucine aminopeptidase): 28.6 µM (active)

N#Cc1nc(COc2ccc(Br)cc2)oc1NCCCn1ccnc1
EC50 [2]: > 50 µM (active)

CN(C)C(=O)COC(=O)c1ccccc1Nc1ccc(SC(F)F)cc1
IC50 [5]: 12.8 µM (active)
IC50 (Caspase-3): 28.2 µM (active)
CC50 [4]: 8.89 µM (active)
IC50 [6]: 17.8 µM (active)
IC50 [7]: 4.9 µM (active)
IC50 (cells): 4.77 µM (active)

CSC1=NC2(C)CCCCC2C12C=CC(=O)C=C2 (stereo not given)
EC50 [2]: > 50 µM (active)

O=C1NCCCC1C(=O)N/N=C/c1cc([N+](=O)[O-])ccc1O (stereo not given)
EC50 [2]: > 50 µM (active)
IC50 (Nonstructural protein 1): 16.8 µM (active)

Cc1cc(Cl)ccc1OCC(=O)N/N=C/c1ccncc1
EC50 [2]: > 50 µM (active)
